The values that follow come from US8575125B2, “Selective inhibitors of CB2 receptor expression and/or activity for the treatment of obesity and obesity-related disorders” (Institut National de la Sante et de la Recherche Medicale …, priority 2007, dated 2013).

The subject of one assay is ob/ob mice. Put plainly: Impact of CB2 antagonist on epididymal fat inflammatory gene expression in obese ob/ob mice (quantitative RT-PCR). It counts as in vivo, mouse. Conditions: 1 mg/kg daily intraperitoneal over 17 days, six week-old ob/ob mice. The method, then:
Animals and Experimental Design: Experimental protocols were conducted in accordance with French government policies (Services véterinaires de la Santé et de la production animale, Ministère français de l'Agriculture). Animals were housed under 12 hours of light/12 hours of dark cycle, in a temperature-controlled environment. The impact of the CB2 antagonist AM630 was evaluated in 6 week-old male obese Lep^Ob/Lep^Ob male mice (ob/ob) and lean Lep^Ob+/Lep^Ob counterparts (ob+/ob). Mice received an 17 day-course of daily intraperitoneal injection of 1 mg/kg AM630 (n=10 ob/ob and n=5 ob+/ob) or vehicle (n=8 ob/ob and n=5 ob+/ob). AM630 (Tocris) was freshly dissolved in a vehicle solution containing 1 drop of Tween 80 in 0.1 ml dimethylsulfoxide (DMSO), sonicated, and further diluted 50 times in NaCl 9‰. Body weight and food intake were measured daily. Mice were sacrificed after overnight fasting. White epididymal adipose tissue was removed, weighed and either fixed in buffered formalin, or snap frozen in liquid nitrogen. All samples were stored at −80° C. until use.
RNA preparation and RT-PCR: Total RNA was extracted from mice epididymal fat using RNeasy® Lipid Tissue Mini kit (QIAGEN). Quantitative RT-PCR was carried out on a Light Cycler (Roche Diagnostics), as previously described.
The PCR amplified products were analyzed on a 2% agarose gel, and sequenced.

In assay [1] the test system is overweight and obese patients. Particulars: 4 clinical studies, more than 6000 overweight and obese patients; cited from earlier work.

`COc1ccc(C(=O)c2c(C)n(CCN3CCOCC3)c3cc(I)ccc23)cc1` [AM 630]: the fat inflammatory response result with ob/ob mice (epididymal fat, vs vehicle) is “reduced”. In the assay with ob/ob mice (vs vehicle (FIG. 16, p<0.05)), the “F4/80 mRNA expression in epididymal fat” value is reported as “lesser induction”, the “MCP-1 mRNA expression in epididymal fat” value is “lesser induction” and the “TNF-alpha mRNA expression in epididymal fat” value is recorded as “lesser induction”.
`Cc1c(C(=O)NN2CCCCC2)nn(-c2ccc(Cl)cc2Cl)c1-c1ccc(Cl)cc1` [rimonabant, Rimonabant]: the “efficacy with regard to weight loss and reduction of the associated cardiometabolic risks” value in assay [1] is given as “consistent efficacy”.
